Experimental data as given in ChEMBL document CHEMBL1201862, “PubChem BioAssay data set” (2004).
Calls of active or inactive are those of the source.

Columns and labels:
[1] = LGR2 antagonists, dose response, cell-based, HEK293, CRE-luciferase reporter, cherry pick (AID 743342); format: functional
[2] = target: Protein disulfide-isomerase (Homo sapiens, UniProt P07237); experiment: PDI inhibitors, insulin turbidity readout, confirmation, biochemical, dry powder samples, set 2 (AID 652146)
[3] = HeLa cell cytotoxicity, dose response, cytotoxicity control, ATP luminescence, dry powder (AID 652117); format: functional, cell-based
Paired box protein Pax-8 = Paired box protein Pax-8 (Homo sapiens, UniProt Q06710); experiment: inhibitors of PAX8-driven TPO luciferase reporter, dose response, RMG-I cells, cherry-pick (AID 687027); format: functional, cell-based;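 note: luciferase reporter driven by Pax8 target thyroperoxidase promoter measured by SteadyGlo luminescence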
Sequence of Paired box protein Pax-8 (Q06710 whole entry): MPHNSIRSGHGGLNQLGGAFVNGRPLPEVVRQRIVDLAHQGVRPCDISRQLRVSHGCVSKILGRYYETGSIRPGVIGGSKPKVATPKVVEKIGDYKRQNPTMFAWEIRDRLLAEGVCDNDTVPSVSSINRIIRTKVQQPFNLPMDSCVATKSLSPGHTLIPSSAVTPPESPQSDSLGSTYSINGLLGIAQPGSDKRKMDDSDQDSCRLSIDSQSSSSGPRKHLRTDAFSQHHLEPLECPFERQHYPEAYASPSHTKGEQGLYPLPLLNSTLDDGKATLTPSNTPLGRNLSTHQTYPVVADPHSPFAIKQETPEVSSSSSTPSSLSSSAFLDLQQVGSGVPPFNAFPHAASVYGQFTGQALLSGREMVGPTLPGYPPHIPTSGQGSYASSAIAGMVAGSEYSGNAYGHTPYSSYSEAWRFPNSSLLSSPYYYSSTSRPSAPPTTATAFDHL

[4] = HEK293T cytotoxicity, dose response, cytotoxicity control for miR-122 modulator project, cell-based, activator set, cherry-pick (AID 720690); format: functional;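 note: HEK293T human cells scored for general mammalian cytotoxicity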
[5] = miR-122 activators in hepatoma reporter cells, dose response, cell-based, Huh7 psiCHECK-miR122, Renilla luciferase, cherry-picked (AID 651956); format: functional;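 note: huh7 hepatoma cells stably carrying a psiCHECK-2 miR-122 sensor plasmid; renilla luciferase signal reporting endogenous miR-122 activity after 48 h compound exposure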
[6] = HEK293T cytotoxicity, dose response, cytotoxicity control for miR-122 modulator project, cell-based, inhibitor set, cherry-pick, set 2 (AID 720697); format: functional

Sequence of Protein disulfide-isomerase (P07237 whole entry): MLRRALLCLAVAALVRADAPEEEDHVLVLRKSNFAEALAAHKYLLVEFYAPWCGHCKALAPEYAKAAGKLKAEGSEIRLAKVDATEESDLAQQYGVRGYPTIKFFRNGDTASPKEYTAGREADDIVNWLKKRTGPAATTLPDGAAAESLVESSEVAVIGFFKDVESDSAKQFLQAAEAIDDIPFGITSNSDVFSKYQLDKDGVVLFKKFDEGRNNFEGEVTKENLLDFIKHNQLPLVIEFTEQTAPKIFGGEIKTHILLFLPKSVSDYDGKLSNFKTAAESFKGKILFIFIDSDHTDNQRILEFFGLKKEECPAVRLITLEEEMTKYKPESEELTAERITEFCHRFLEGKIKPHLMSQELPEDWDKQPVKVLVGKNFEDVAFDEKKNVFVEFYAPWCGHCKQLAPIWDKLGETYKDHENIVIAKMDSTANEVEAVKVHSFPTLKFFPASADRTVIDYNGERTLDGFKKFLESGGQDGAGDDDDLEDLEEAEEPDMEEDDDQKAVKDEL

Structure (SMILES): C[C@H]1CCCCO[C@H](CN(C)C(=O)Nc2cccc3ccccc23)[C@@H](C)CN([C@@H](C)CO)C(=O)c2cc(NS(=O)(=O)c3cn(C)cn3)ccc2O1
- AC50 [1]: 47 µM (active)

Structure (SMILES): CCOC(=O)C1(CCOc2ccccc2)CCN(Cc2cccc(Cl)c2)CC1
- AC50 [2]: > 30 µM (inactive)
- AC50 [3]: 32.3 µM (active)

Structure (SMILES): CNC[C@@H]1Oc2cc(C#CC3CCCCC3)ccc2S(=O)(=O)N([C@@H](C)CO)C[C@@H]1C
- AC50 (Paired box protein Pax-8): 25.3 µM (active)
- AC50 [4]: 19.4 µM (active)
- AC50 [5]: 1.39 µM (active)

Structure (SMILES): CN1C(=O)c2cc(NC(=O)c3cccs3)ccc2OC[C@H]2O[C@@H](CC(=O)N3CCCCC3)CC[C@H]21
- AC50 [6]: 9.9 µM (active)
